Reference: patent publication US6992079B2, “Substituted 11-phenyl-dibenzazepine compounds useful for the treatment or prevention of diseases characterized by abnormal cell proliferation” (President Fellows of Harvard College, priority 1997, dated 2006)
Where two headings read alike, the source gives them in different places.

How the values were obtained:
Format in all cases: cell-based
[1] = system: HS 578T; assay: In-Vitro Testing SRB panel: Breast Cancer; details: 48 h
[2] = system: OVCAR-5; assay: In-Vitro Testing SRB panel: Ovarian Cancer; details: OVCAR-5, 48 h
[3] = system: DU-145; assay: In-Vitro Testing SRB panel: Prostate Cancer; details: DU-145, 48 h
[4] = system: NCI-H522; details: NCI-H522, 48 h
[5] = system: TK-10; assay: In-Vitro Testing SRB panel: Renal Cancer; details: TK-10, 48 h
[6] = system: LOX IMVI; assay: In-Vitro Testing SRB panel: Melanoma; details: 48 h
[7] = system: IGROV1; assay: In-Vitro Testing SRB panel: Ovarian Cancer
[8] = system: UACC-62; assay: In-Vitro Testing SRB panel: Melanoma; details: UACC-62, 48 h
[9] = system: MDA-MB-23; assay: SRB antiproliferative assay; details: Homo sapiens, MDA-MB-23
From the text: (§1) The cells were passaged using Trypsin (Gibco).

[10] = system: MMRU; assay: SRB antiproliferative assay; details: Homo sapiens, MMRU (Melanoma), 5% FCS/5 day incubation
From the text: as §1

[11] = Homo sapiens, read-out: LC50 (the source's name)

O=C(c1ccc([N+](=O)[O-])cc1)N1Cc2ccccc2C(c2ccccc2Cl)c2ccccc21 (centres unmarked) [Compound 28, N-(4′-Nitrobenzoyl)-11-(2′-chlorophenyl)-5,6-dihydro-11H-dibenz[b,e]azepine]
TGI ([1]; HS 578T): >1.00E−04 Molar | Percent Growth ([1]; HS 578T, log10 conc −4.0 Molar): 42% | Percent Growth ([1]; HS 578T, log10 conc −5.0 Molar): 121% | Percent Growth ([1]; HS 578T, log10 conc −6.0 Molar): 125% | Percent Growth ([1]; HS 578T, log10 conc −7.0 Molar): 187% | Percent Growth ([1]; HS 578T, log10 conc −8.0 Molar): 193% | GI50 ([1]; Homo sapiens, Hs-578T): 80200 nM | CC50 ([1]; Homo sapiens, HS 578T, read-out: LC50 (the source's name)): > 100000 nM | GI50 ([2]; Homo sapiens): > 100000 nM | CC50 [2, 11]: > 100000 nM | TGI [2]: >1.00E−04 Molar | Percent Growth ([2]; log10 conc −4.0 Molar): 68% | Percent Growth ([2]; log10 conc −5.0 Molar): 75% | Percent Growth ([2]; log10 conc −6.0 Molar): 91% | Percent Growth ([2]; log10 conc −7.0 Molar): 96% | Percent Growth ([2]; log10 conc −8.0 Molar): 110% | TGI [3]: >1.00E−04 Molar | Percent Growth ([3]; log10 conc −4.0 Molar): 27% | Percent Growth ([3]; log10 conc −5.0 Molar): 30% | Percent Growth ([3]; log10 conc −6.0 Molar): 54% | Percent Growth ([3]; log10 conc −7.0 Molar): 98% | Percent Growth ([3]; log10 conc −8.0 Molar): 100% | GI50 ([3]; Homo sapiens): 1520 nM | CC50 [3, 11]: > 100000 nM | GI50 ([4]; Homo sapiens): 337 nM | CC50 [4, 11]: > 100000 nM | TGI [4]: >2.72E−05 Molar | Percent Growth ([4]; log10 conc −4.0 Molar): −16% | Percent Growth ([4]; log10 conc −5.0 Molar): 12% | Percent Growth ([4]; log10 conc −6.0 Molar): 13% | Percent Growth ([4]; log10 conc −7.0 Molar): 91% | Percent Growth ([4]; log10 conc −8.0 Molar): 99% | GI50 ([5]; Homo sapiens): 51300 nM | CC50 [5, 11]: > 100000 nM | TGI [5]: >1.00E−04 Molar | Percent Growth ([5]; log10 conc −4.0 Molar): 48% | Percent Growth ([5]; log10 conc −5.0 Molar): 54% | Percent Growth ([5]; log10 conc −6.0 Molar): 76% | Percent Growth ([5]; log10 conc −7.0 Molar): 93% | Percent Growth ([5]; log10 conc −8.0 Molar): 102% | TGI [6]: >1.00E−04 Molar | GI50 ([6]; Homo sapiens): 382 nM | CC50 [6, 11]: > 100000 nM | Percent Growth ([6]; log10 conc −4.0 Molar): 9% | Percent Growth ([6]; log10 conc −5.0 Molar): 8% | Percent Growth ([6]; log10 conc −6.0 Molar): 19% | Percent Growth ([6]; log10 conc −7.0 Molar): 93% | Percent Growth ([6]; log10 conc −8.0 Molar): 103% | GI50 ([7]; Homo sapiens, IGROV-1, 48 h): 1880 nM | CC50 ([7]; Homo sapiens, IGROV-1, IGROV1, 48 h, read-out: LC50 (the source's name)): > 100000 nM | TGI ([7]; IGROV1, 48 h): >1.00E−04 Molar | Percent Growth ([7]; IGROV1, log10 conc −4.0 Molar, 48 h): 25% | Percent Growth ([7]; IGROV1, log10 conc −5.0 Molar, 48 h): 34% | Percent Growth ([7]; IGROV1, log10 conc −6.0 Molar, 48 h): 56% | Percent Growth ([7]; IGROV1, log10 conc −7.0 Molar, 48 h): 97% | Percent Growth ([7]; IGROV1, log10 conc −8.0 Molar, 48 h): 102% | GI50 ([8]; Homo sapiens): 363 nM | CC50 [8, 11]: > 100000 nM | Percent Growth ([8]; log10 conc −4.0 Molar): 0% | Percent Growth ([8]; log10 conc −5.0 Molar): 22% | Percent Growth ([8]; log10 conc −6.0 Molar): 45% | Percent Growth ([8]; log10 conc −7.0 Molar): 57% | Percent Growth ([8]; log10 conc −8.0 Molar): 82% | IC50 [9]: 500 nM | IC50 [10]: 200 nM
